Source: paper PMC6726534 (Biotechnology and bioengineering, 2019)
In brackets after ≈: the same amount, converted by molar mass. Where a SMILES comes first, the peptide text is derived from it.

Tests used:
Format in all cases: cell-based
[1] = system: Salmonella enterica serovar Newport; settings: 1 h
[2] = system: E. coli FVEC 638; settings: FVEC 638, 1 h
[3] = system: E. coli FVEC 964; settings: FVEC 964, 1 h
[4] = system: Salmonella Infantis #129 B; settings: 1 h
[5] = system: E. coli JW0013; settings: JW0013, 1 h
[6] = system: E. coli PUTI 379; settings: PUTI 379, 1 h
[7] = system: Salmonella enterica serovar Enteritidis MH91989; settings: serovar Enteritidis MH91989, 1 h
[8] = system: Salmonella enterica serovar Tennessee; settings: 1 h
[9] = system: Salmonella enterica serovar Typhimurium ATCC SL1344; settings: ATCC SL1344, 1 h
[10] = system: E. coli J2210; settings: J2210, 1 h
[11] = system: E. coli JJ2489; settings: JJ2489, 1 h
[12] = system: MDA-MB-231 human breast adenocarcinoma cells; assay: Cytotoxicity assay; settings: 10 μmol/L peptide, 24 h, MTT assay, duplicate, normalized to PBS
[13] = system: A431 human epidermoid carcinoma cells; assay: Cytotoxicity assay; settings: 10 μmol/L peptide, 24 h, MTT assay, duplicate, normalized to PBS

| Compound | MIC [1] [µM] | MIC [2] [µM] | MIC [3] [µM] | MIC [4] [µM] | MIC [5] [µM] | MIC [6] [µM] | MIC [7] [µM] | MIC [8] [µM] | MIC [9] [µM] | MIC [10] [µM] | MIC [11] [µM] | toxicity towards MDA-MB-231 [12] | toxicity to A431 cells [13] |
| --- | --- | --- | --- | --- | --- | --- | --- | --- | --- | --- | --- | --- | --- |
| CC[C@H](C)[C@H](NC(=O)[C@H](Cc1ccc(O)cc1)NC(=O)[C@@H](NC(=O)[C@@H]1CCCN1C(=O)[C@H](CCCNC(=N)N)NC(=O)[C@H](CC(N)=O)NC(=O)[C@H](CC(N)=O)NC(=O)CN)C(C)C)C(=O)N1CCC[C@H]1C(=O)N[C@@H](CCC(N)=O)C(=O)N1CCC[C@H]1C(=O)N[C@@H](CCCNC(=N)N)C(=O)N1CCC[C@H]1C(=O)N1CCC[C@H]1C(=O)N[C@@H](Cc1c[nH]cn1)C(=O)N1CCC[C@H]1C(=O)N[C@@H](CCCNC(=N)N)C(=O)N[C@@H](CC(C)C)C(=O)O [Api_WT, reference compound] (H-GNNRPVYIPQPRPPHPRL-OH) | 0.031 ± 0.014 (≈ 0.0654 µg/mL) | 0.048 ± 0.011 (≈ 0.101 µg/mL) | 0.048 ± 0.011 (≈ 0.101 µg/mL) | 0.048 ± 0.011 (≈ 0.101 µg/mL) | 0.024 ± 0.006 (≈ 0.0506 µg/mL) | 0.048 ± 0.011 (≈ 0.101 µg/mL) | 0.048 ± 0.011 (≈ 0.101 µg/mL) | 0.048 ± 0.011 (≈ 0.101 µg/mL) | 0.048 ± 0.011 (≈ 0.101 µg/mL) | 0.048 ± 0.011 (≈ 0.101 µg/mL) | 0.031 ± 0.014 (≈ 0.0654 µg/mL) | – | – |
| CC[C@H](C)[C@H](NC(=O)[C@@H]1CCCN1C(=O)[C@H](CCCNC(=N)N)NC(=O)[C@@H]1CCCN1C(=O)[C@@H]1CCCN1C(=O)[C@@H](NC(=O)[C@@H]1CCCN1C(=O)[C@H](CCCNC(=N)N)NC(=O)[C@@H]1CCCN1C(=O)[C@H](CC(C)C)NC(=O)[C@H](Cc1ccc(O)cc1)NC(=O)[C@H](CO)NC(=O)CNC(=O)[C@H](CCCCN)NC(=O)[C@H](CC(=O)O)NC(=O)[C@@H](N)C(C)C)[C@@H](C)O)C(=O)N[C@@H](Cc1ccc(O)cc1)C(=O)N[C@@H](CC(N)=O)C(=O)N[C@@H](CCCNC(=N)N)C(=O)N[C@@H](CC(N)=O)C(=O)O [Pyr_WT, reference compound] (H-VDKGSYLPRPTPPRPIYNRN-OH) | – | – | – | – | – | – | – | – | – | – | – | None of these PrAMPs exhibited any toxicity | no toxicity |
| CC(C)C[C@H](NC(=O)[C@H](CCCNC(=N)N)NC(=O)[C@@H]1CCCN1C(=O)[C@H](Cc1c[nH]cn1)NC(=O)[C@@H]1CCCN1C(=O)[C@@H]1CCCN1C(=O)[C@H](CCCNC(=N)N)NC(=O)[C@@H]1CCCN1C(=O)[C@H](CCC(N)=O)NC(=O)[C@@H]1CCCN1C(=O)[C@H](CCCNC(=N)N)NC(=O)[C@H](Cc1ccc(O)cc1)NC(=O)[C@@H](NC(=O)[C@@H]1CCCN1C(=O)[C@H](CCCCN)NC(=O)[C@H](CC(N)=O)NC(=O)[C@H](CC(N)=O)NC(=O)CN)C(C)C)C(=O)O [Api_R4K/I8R] (H-GNNKPVYRPQPRPPHPRL-OH) | 0.017 ± 0.009 (≈ 0.0361 µg/mL) | 0.048 ± 0.011 (≈ 0.102 µg/mL) | 0.048 ± 0.011 (≈ 0.102 µg/mL) | 0.024 ± 0.006 (≈ 0.051 µg/mL) | 0.012 ± 0.003 (≈ 0.0255 µg/mL) | 0.048 ± 0.011 (≈ 0.102 µg/mL) | 0.031 ± 0.014 (≈ 0.0658 µg/mL) | 0.024 ± 0.006 (≈ 0.051 µg/mL) | 0.034 ± 0.017 (≈ 0.0722 µg/mL) | 0.034 ± 0.017 (≈ 0.0722 µg/mL) | 0.034 ± 0.017 (≈ 0.0722 µg/mL) | – | – |
| CC[C@H](C)[C@H](NC(=O)[C@@H]1CCCN1C(=O)[C@H](CCCCN)NC(=O)[C@@H]1CCCN1C(=O)[C@@H]1CCCN1C(=O)[C@@H](NC(=O)[C@@H]1CCCN1C(=O)[C@H](CCCNC(=N)N)NC(=O)[C@@H]1CCCN1C(=O)[C@H](CCCNC(=N)N)NC(=O)[C@H](Cc1ccc(O)cc1)NC(=O)[C@H](CO)NC(=O)CNC(=O)[C@H](CCCCN)NC(=O)[C@H](CC(=O)O)NC(=O)[C@@H](N)C(C)C)[C@@H](C)O)C(=O)N[C@@H](Cc1ccc(O)cc1)C(=O)N[C@@H](CC(N)=O)C(=O)N[C@@H](CCCNC(=N)N)C(=O)N[C@@H](CC(N)=O)C(=O)O [Pyr_L7R/R14K] (H-VDKGSYRPRPTPPKPIYNRN-OH) | – | – | – | – | – | – | – | – | – | – | – | None of these PrAMPs exhibited any toxicity | no toxicity |
| CC(C)C[C@H](NC(=O)[C@H](CCCNC(=N)N)NC(=O)[C@@H]1CCCN1C(=O)[C@H](Cc1c[nH]cn1)NC(=O)[C@@H]1CCCN1C(=O)[C@@H]1CCCN1C(=O)[C@H](CCCNC(=N)N)NC(=O)[C@@H]1CCCN1C(=O)[C@H](CCC(N)=O)NC(=O)[C@@H]1CCCN1C(=O)[C@H](CCCCN)NC(=O)[C@H](Cc1ccc(O)cc1)NC(=O)[C@@H](NC(=O)[C@@H]1CCCN1C(=O)[C@H](CCCCN)NC(=O)[C@H](CC(N)=O)NC(=O)[C@H](CC(N)=O)NC(=O)CN)C(C)C)C(=O)O [Api_R4K/I8K] (H-GNNKPVYKPQPRPPHPRL-OH) | 0.024 ± 0.006 (≈ 0.0503 µg/mL) | 0.048 ± 0.011 (≈ 0.101 µg/mL) | 0.048 ± 0.011 (≈ 0.101 µg/mL) | 0.024 ± 0.006 (≈ 0.0503 µg/mL) | 0.012 ± 0.003 (≈ 0.0251 µg/mL) | 0.048 ± 0.011 (≈ 0.101 µg/mL) | 0.031 ± 0.014 (≈ 0.065 µg/mL) | 0.024 ± 0.006 (≈ 0.0503 µg/mL) | 0.034 ± 0.017 (≈ 0.0712 µg/mL) | 0.034 ± 0.017 (≈ 0.0712 µg/mL) | 0.031 ± 0.014 (≈ 0.065 µg/mL) | – | – |
